Laboratory results published in PubChem BioAssay AID1918996 (Molecular Pharmacology Branch, DTP, NCI, 2023).

Tested on: 349418-098-R-PDC complex spheroid growth
Experiment: Anticancer human tumor 349418-098-R-PDC patient-derived lung adenocarcinoma cell line growth inhibition [AhR]
Conditions: for IC50: curve of first compound; for viability, T/C: stronger effect = lower value
How it was run: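 Agents were dosed in half-log steps down from roughly clinical Cmax, or from 10 microM where Cmax was unknown, alone and with AhR antagonists. Read-out: percent test/control growth of tumor spheroids containing HUVEC and MSC stromal cells.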

[1] = second compound 0.1 µM, first compound 0.00316 µM
[2] = second compound 0.1 µM, first compound 0.01 µM
[3] = second compound 0.1 µM, first compound 0.0316 µM
[4] = second compound 0.1 µM, first compound 0.1 µM
[5] = second compound 0.316 µM, first compound 0.00316 µM
[6] = second compound 0.316 µM, first compound 0.01 µM
[7] = second compound 0.316 µM, first compound 0.0316 µM
[8] = second compound 0.316 µM, first compound 0.1 µM
[9] = second compound 1 µM, first compound 0.00316 µM
[10] = second compound 1 µM, first compound 0.01 µM
[11] = second compound 1 µM, first compound 0.0316 µM
[12] = second compound 1 µM, first compound 0.1 µM
[13] = second compound 3.16 µM, first compound 0.00316 µM
[14] = second compound 3.16 µM, first compound 0.01 µM
[15] = second compound 3.16 µM, first compound 0.0316 µM
[16] = second compound 3.16 µM, first compound 0.1 µM
[17] = second compound 10 µM, first compound 0.00316 µM
[18] = second compound 10 µM, first compound 0.01 µM
[19] = second compound 10 µM, first compound 0.0316 µM
[20] = second compound 10 µM, first compound 0.1 µM
[21] = second compound 0.1 µM, first compound 0.316 µM
[22] = second compound 0.1 µM, first compound 1 µM
[23] = second compound 0.1 µM, first compound 3.16 µM
[24] = second compound 0.1 µM, first compound 10 µM
[25] = second compound 0.316 µM, first compound 0.316 µM
[26] = second compound 0.316 µM, first compound 1 µM
[27] = second compound 0.316 µM, first compound 3.16 µM
[28] = second compound 0.316 µM, first compound 10 µM
[29] = second compound 1 µM, first compound 0.316 µM
[30] = second compound 1 µM, first compound 1 µM
[31] = second compound 1 µM, first compound 3.16 µM
[32] = second compound 1 µM, first compound 10 µM
[33] = second compound 3.16 µM, first compound 0.316 µM
[34] = second compound 3.16 µM, first compound 1 µM
[35] = second compound 3.16 µM, first compound 3.16 µM
[36] = second compound 3.16 µM, first compound 10 µM
[37] = second compound 10 µM, first compound 0.316 µM
[38] = second compound 10 µM, first compound 1 µM
[39] = second compound 10 µM, first compound 3.16 µM
[40] = second compound 10 µM, first compound 10 µM
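Also: spheroids exposed to agents for seven days before luminescence viability read.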
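For viability, T/C in this document: spheroids also contain HUVEC endothelial cells and human MSC stroma.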

Structure (SMILES) | IC50 (second compound 0.1 µM) [µM] | IC50 (second compound 0.316 µM) [µM] | IC50 (second compound 1 µM) [µM] | IC50 (second compound 3.16 µM) [µM] | IC50 (second compound 10 µM) [µM] | viability, T/C [3] [%] | viability, T/C [4] [%] | viability, T/C [7] [%] | viability, T/C [8] [%] | viability, T/C [11] [%] | viability, T/C [12] [%] | viability, T/C [15] [%] | viability, T/C [16] [%] | viability, T/C [19] [%] | viability, T/C [20] [%] | viability, T/C [21] [%] | viability, T/C [22] [%] | viability, T/C [25] [%] | viability, T/C [26] [%] | viability, T/C [29] [%] | also measured
CC[C@@]1(O)C(=O)OCc2c1cc1n(c2=O)Cc2cc3c(CN(C)C)c(O)ccc3nc2-1 + Cc1ccccc1N=Nc1ccc(NC(=O)c2ccnn2C)c(C)c1 | 0.0165 | 0.0113 | 0.0134 | 0.00838 | 0.00622 | 29.3 | 13 | 25.5 | 17 | 22.5 | 17.2 | 19.1 | 15.4 | 22.2 | 17.5 |  |  |  |  |  | viability, T/C (second compound 0.1 µM, first compound 0.000316 µM): 116%; viability, T/C (second compound 0.1 µM, first compound 0.001 µM): 101%; viability, T/C [1]: 112%; viability, T/C [2]: 65.9%; viability, T/C (second compound 0.316 µM, first compound 0.000316 µM): 95%; viability, T/C (second compound 0.316 µM, first compound 0.001 µM): 104%; viability, T/C [5]: 98.5%; viability, T/C [6]: 52.8%; viability, T/C (second compound 1 µM, first compound 0.000316 µM): 130%; viability, T/C (second compound 1 µM, first compound 0.001 µM): 76.9%; viability, T/C [9]: 98%; viability, T/C [10]: 57.3%; viability, T/C (second compound 3.16 µM, first compound 0.000316 µM): 64.5%; viability, T/C (second compound 3.16 µM, first compound 0.001 µM): 63.3%; viability, T/C [13]: 79.1%; viability, T/C [14]: 46.5%; viability, T/C (second compound 10 µM, first compound 0.000316 µM): 66.8%; viability, T/C (second compound 10 µM, first compound 0.001 µM): 65.1%; viability, T/C [17]: 68.7%; viability, T/C [18]: 38.2%
COc1cc(C2c3cc4c(cc3C(OC3OC5COC(C)OC5C(O)C3O)C3COC(=O)C23)OCO4)cc(OC)c1O (stereo not given) + Cc1ccccc1N=Nc1ccc(NC(=O)c2ccnn2C)c(C)c1 | 0.298 | 0.243 | 0.219 | 0.149 | < 0.0316 | 89.6 | 98.8 | 103 | 71.3 | 90.4 | 76.6 | 70.1 | 56.9 | 46.4 | 44.6 | 47.5 | 20.2 | 47.2 | 19.9 | 36.5 | viability, T/C [23]: 15.3%; viability, T/C [24]: 13.3%; viability, T/C [27]: 14.6%; viability, T/C [28]: 13.7%; viability, T/C [30]: 23.9%; viability, T/C [31]: 16.6%; viability, T/C [32]: 14.6%; viability, T/C [33]: 36.6%; viability, T/C [34]: 19.1%; viability, T/C [35]: 16.3%; viability, T/C [36]: 16%; viability, T/C [37]: 30.5%; viability, T/C [38]: 22.4%; viability, T/C [39]: 17.5%; viability, T/C [40]: 15.9%
COc1cccc2c1C(=O)c1c(O)c3c(c(O)c1C2=O)CC(O)(C(=O)CO)CC3OC1CC(N)C(O)C(C)O1 (stereo not given) + Cc1ccccc1N=Nc1ccc(NC(=O)c2ccnn2C)c(C)c1 | < 0.0316 | < 0.0316 | < 0.0316 | < 0.0316 | < 0.0316 | 25.2 | 19 | 21.5 | 17.8 | 24.3 | 19.2 | 23.6 | 18 | 20.4 | 15.6 | 5.76 | 0.44 | 5.6 | 1.97 | 6.34 | viability, T/C [23]: 4.06%; viability, T/C [24]: 7.47%; viability, T/C [27]: 4.18%; viability, T/C [28]: 7.15%; viability, T/C [30]: 0.81%; viability, T/C [31]: 4.84%; viability, T/C [32]: 6.54%; viability, T/C [33]: 6.45%; viability, T/C [34]: 0.66%; viability, T/C [35]: 4.34%; viability, T/C [36]: 6.09%; viability, T/C [37]: 4.32%; viability, T/C [38]: 1.12%; viability, T/C [39]: 3.09%; viability, T/C [40]: 7.07%
Nc1ncn(C2CC(O)C(CO)O2)c(=O)n1 (stereo not given) + Cc1ccccc1N=Nc1ccc(NC(=O)c2ccnn2C)c(C)c1 | 0.059 | 0.0661 | 0.107 | 0.068 | 0.0505 | 66.1 | 39.9 | 73.1 | 38.8 | 69.9 | 51.8 | 61 | 42.2 | 53.9 | 42.8 | 39.1 | 30 | 37.7 | 34.5 | 44 | viability, T/C [1]: 97.8%; viability, T/C [2]: 103%; viability, T/C [5]: 77.8%; viability, T/C [6]: 111%; viability, T/C [9]: 79.6%; viability, T/C [10]: 99.2%; viability, T/C [30]: 34%; viability, T/C [13]: 91.1%; viability, T/C [14]: 74.4%; viability, T/C [33]: 41.3%; viability, T/C [34]: 34%; viability, T/C [17]: 54.7%; viability, T/C [18]: 61.4%; viability, T/C [37]: 37.2%; viability, T/C [38]: 29.5%
